Some results are limits rather than exact numbers.

The source of these data is patent publication US20080312192A1, “Diaryl Urea Derivatives in the Treatment of Protein Kinase Dependent Diseases” (priority 2003, published 2008).

For one data set, the system named is D835Y-Ba/F3. Particulars: Mus musculus, BaF3, 48 h, read-out: Inhibition of Flt-3 dependent Proliferation (ED50) D835-mutant.
The target of another data set is T1, RET (Homo sapiens, UniProt P07949).
T1 construct: expresses the amino acid region 658-1072 (Swiss prot No. Q9BTB0); made in house; host or cells: Sf9 insect cells (baculovirus, vector pFB-GSTX3)
T1 sequence (P07949 658-1072 isoform P07949-2): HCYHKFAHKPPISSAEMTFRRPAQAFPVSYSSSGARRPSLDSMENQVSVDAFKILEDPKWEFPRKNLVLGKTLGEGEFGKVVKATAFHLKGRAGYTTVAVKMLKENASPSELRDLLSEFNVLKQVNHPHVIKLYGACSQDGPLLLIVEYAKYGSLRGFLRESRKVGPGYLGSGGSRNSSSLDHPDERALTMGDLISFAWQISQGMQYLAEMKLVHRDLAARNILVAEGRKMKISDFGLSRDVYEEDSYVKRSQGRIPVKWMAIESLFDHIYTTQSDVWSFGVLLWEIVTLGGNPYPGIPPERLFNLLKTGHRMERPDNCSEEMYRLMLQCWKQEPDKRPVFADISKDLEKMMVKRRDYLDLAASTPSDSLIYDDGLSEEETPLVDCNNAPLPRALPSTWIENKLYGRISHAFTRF
The experiment in a line: RET kinase inhibition (33P incorporation into poly(Glu,Tyr), GST-wtRET or GST-RET-Men2B). In kind it is biochemical. As to the method:
RET kinase inhibition is determined as follows:
The coding sequence for the cytoplasmic domain of wtRET is amplified by PCR from a cDNA library using specific primers. RET-Men2B is generated through site-directed mutagenesis resulting in the M918T mutation. The amplified DNA fragments and the pFB-GSTX3 vector are made compatible for ligation by digestion with SalI and KpnI. Ligation of these DNA fragments results in the baculovirus donor plasmids […] and pFB-GX3-RET-Men2B, respectively.
Production of virus: The baculovirus donor plasmids containing the kinase domains are transfected into the DH10Bac cell line (GIBCO) and the transfected cells are plated on selective agar plates. Colonies without insertion of the fusion sequence into the viral genome (carried by the bacteria) are blue. Single, white colonies are picked and viral DNA (bacmid) is isolated from the bacteria by standard plasmid purification procedures. Sf9 cells or Sf21 cells (American Type Culture Collection) are then transfected in 25 cm^2 flasks with the viral DNA using Cellfectin reagent.
Protein expression in Sf9 cells: Virus-containing media is collected from the transfected cell culture and used for infection to increase its titer. Virus-containing media obtained after two rounds of infection is used for large-scale protein expression. For large-scale protein expression 100 cm^2 round tissue culture plates are seeded with 5×10^7 cells/plate and infected with 1 mL of virus-containing media (approximately 5 MOIs). After 3 days, the cells are scraped off the plate and centrifuged at 500 rpm for 5 minutes. Cell pellets from 10-20, 100 cm^2 plates are re-suspended in 50 mL of ice-cold lysis buffer (25 mM Tris-HCl, pH 7.5, 2 mM EDTA, 1% NP-40, 1 mM DTT, 1 mM PMSF). The cells are stirred on ice for 15 minutes and then centrifuged at 5,000 rpms for 20 minutes.
Purification of GST-tagged proteins: The centrifuged cell lysate is loaded onto a 2 mL glutathione-sepharose column (Pharmacia) and washed 3× with 10 mL of 25 mM Tris-HCl, pH 7.5, 2 mM EDTA, 1 mM DTT, 200 mM NaCl. The GST-tagged proteins are then eluted by 10 applications (1 mL each) of 25 mM Tris-HCl, pH 7.5, 10 mM reduced-glutathione, 100 mM NaCl, 1 mM DTT, 10% glycerol and stored at −70° C.
Measure of enzyme activity: Tyrosine protein kinase assays with either purified GST-wtRET or GST-RET-Men2B protein are carried out in a final volume of 30 μL containing 15 ng of either GST-RET or GST-RET-Men2B protein, 20 mM Tris-HCl, pH 7.5, 1 mM MnCl2, 10 mM MgCl2, 1 mM DTT, 3 μg/mL poly(Glu, Tyr) 4:1, 1% DMSO, 2.0 μM ATP (γ-[^33P]-ATP 0.1 μCi). The activity is assayed in the presence or absence of inhibitors, by measuring the incorporation of ^33P from [γ^33P] ATP into poly(Glu, Tyr) 4:1. […] Subsequently, 40 μL of the reaction mixture are transferred onto Immobilon-PVDF membrane (Millipore) previously soaked for 5 minutes with methanol, rinsed with water, then soaked for 5 minutes with 0.5% H3PO4 and mounted on vacuum manifold with disconnected vacuum source. After spotting all samples, vacuum is connected and each well rinsed with 200 μL 0.5% H3PO4. Membranes are removed and washed 4× on a shaker with 1.0% H3PO4, once with ethanol. Membranes are counted after drying at ambient temperature, mounting in Packard TopCount 96-well frame, and addition of 10 μl/well of Microscint™ (Packard). […] One unit of protein kinase activity is defined as 1 nmole of ^33P transferred from [γ^33P] ATP to the substrate protein/minute/mg of protein at 37° C.

For another data set, the system named is ITD-Ba/F3. Particulars: Mus musculus, BaF3, 48 h, read-out: Inhibition of Flt-3 dependent Proliferation (ED50) ITD-mutant.

Experimental for D835Y-Ba/F3: (§1) Inhibition of Proliferation in Flt-3 Dependent Ba/F3 Cells:
(§2) The compound's potential to penetrate cell membranes and exert antiproliferative effects is determined in Ba/F3 cells dependent on mutated [ITD or D835Y; Gilliland and Griffin, Blood, Vol. 100, No. 5, 153242 (2002)] Flt-3 receptor kinases.
(§3) A modified protocol of the YO-PRO-1 assay in a 96-well format is based on the use of the wild-type IL-3-dependent hematopoietic cell line Ba/F3 (DSMZ, Braunschweig, Germany) and the mutant sub-lines ITD-Ba/F3 or D835Y-Ba/F3 [Weisberg et al., Cancer Cell 1 (5):433-43 (2000)] expressing constitutively activating Flt-3 kinases.
(§4) ITD-FLT3- or D835Y-FLT3-Ba/F3 cells are diluted in fresh medium to a final concentration of 3×10^5 cells per ml and 50 μl aliquots seeded into 96-well plates (1.5×10^4 cells per well). Subsequently, 50 μl 2× compound solutions were added and cells incubated for 48 h. The anti-proliferative and apoptotic activity of a compound is initially tested in triplicates at 10 μM, 1 μM and 0.1 μM concentration on both cell lines. Cells treated with DMSO alone (added to a final concentration of 0.1%) always serves as a control. In addition, a plate blank value is routinely determined in a well containing only 100 μl of medium and no cells.
(§5) To further profile a compound an ED50 determination is done starting at 10 μM or 3 μM of the compound of interest. From those concentrations, stepwise nine dilutions are prepared reaching the final concentrations of 2 μM and 0.5 μM, respectively.
(§6) Activity of inhibitors is assessed by the YO-PRO-1 assay as previously described in [Idziorek et al., J. Immunol. […] Briefly, after the treatment period of 48 h, a 25 μl aliquot of a solution containing 100 mM sodium citrate, pH 4.0, 134 mM sodium chloride and 12.5 μM YO-PRO-1 dye (YO-PRO-1 iodide, #Y3603, Molecular Probes) is directly added to the 100 μl medium in the wells of the 96-well plate. That results in a final dye concentration of 2.5 μM, the plate is then incubated for 10 min at ambient temperature in the dark. The uptake of the YO-PRO-1 dye into cells is assessed by a first measurement using a Cytofluor II 96-well plate reader (PerSeptive Biosystems) with the following settings: Excitation (nm) 485120 and Emission (nm) 530/25, Gain 75. After this first reading, 25 μl of lysis buffer consisting of 20 mM sodium citrate, pH 4.0, 26.8 mM sodium chloride, 0.4% NP40, 20 mM EDTA and 20 mM is added to each well. Cell lysis is completed within 60 min at room temperature and total amount of YO-PRO-1 bound to DNA is determined by a second measurement using the Cytofluor II 96-well reader with the identical setting as described above.
Experimental for ITD-Ba/F3: as §1, §2, §3, §4, §5, §6

As to `CC(C)N1CCN(Cc2ccc(NC(=O)Nc3ccc(Oc4ccnc(N)n4)cc3)cc2C(F)(F)F)CC1` [Example 45, N-[4-(2-Amino-pyrimidin-4-yloxy)-phenyl]-N′-[4-(4-isopropylpiperazin-1-ylmethyl)-3-trifluoromethyl-phenyl]-urea], the EC50 in the data set on D835Y-Ba/F3 is 0.5 nM; in the data set on ITD-Ba/F3 it was under 0.2 nM. Moreover, the IC50 against RET worked out at 400 nM.
Consider `CNc1nccc(Oc2ccc(NC(=O)Nc3ccc(CN4CCN(C(C)C)CC4)c(C(F)(F)F)c3)cc2)n1` [Example 46, N-[4-(2-Methylamino-pyrimidin-4-yloxy)-phenyl]-N′-[4-(4-isopropylpiperazin-1-ylmethyl)-3-trifluoromethyl-phenyl]-urea], for which the EC50 is 3.9 nM with D835Y-Ba/F3 and under 0.2 nM in the data set with ITD-Ba/F3.
Regarding `CNc1nccc(Oc2ccc(NC(=O)Nc3ccc(CN4CCN(C(C)(C)C)CC4)c(C(F)(F)F)c3)cc2)n1` [Example 49, N-[4-(2-Methylamino-pyrimidin-4-yloxy)-phenyl]-N′-[4-(4-tert-butylpiperazinyl-methyl)-3-trifluoromethyl-phenyl]-urea], the melting point was in the range of 257 to 258 °C. Moreover, in the data set on D835Y-Ba/F3, the EC50 was 11.7 nM. The EC50 with ITD-Ba/F3 was 0.1 nM.
Consider `CCN1CCN(Cc2ccc(NC(=O)Nc3ccc(Oc4ccnc(NC)n4)cc3)cc2C(F)(F)F)CC1` [Example 53c, 1-[4-(4-Ethyl-piperazin-1-ylmethyl)-3-trifluoromethyl-phenyl]-3-[4-(2-methylamino-pyrimidin-4-yloxy)-phenyl]-urea], for which the values for the EC50 in the data set on D835Y-Ba/F3 and with ITD-Ba/F3 were 3.3 nM and 0.1 nM, respectively. This compound also returned an IC50 against RET of 350 nM.
